Test results reported in patent publication US12240862B2, “Inhibitors of peptidylarginine deiminases” (Gilead Sciences, Inc., priority 2020, dated 2025).

What follows are compounds tested against T1, human PAD4 (Homo sapiens, UniProt Q9UM07) (assay: In vitro PAD4 BAEE biochemical assay). Settings: human PAD4, BAEE substrate; 5 nM PAD4, 2 mM calcium chloride, 3 mM BAEE; geometric mean of multiple experiments.
T1 construct: human PAD4 (NM_012387), A2P663, was PCR amplified; His-SUMO (N, cleaved yes); made in house; host or cells: E. coli BL21(DE3)
T1 sequence (Q9UM07 2-663): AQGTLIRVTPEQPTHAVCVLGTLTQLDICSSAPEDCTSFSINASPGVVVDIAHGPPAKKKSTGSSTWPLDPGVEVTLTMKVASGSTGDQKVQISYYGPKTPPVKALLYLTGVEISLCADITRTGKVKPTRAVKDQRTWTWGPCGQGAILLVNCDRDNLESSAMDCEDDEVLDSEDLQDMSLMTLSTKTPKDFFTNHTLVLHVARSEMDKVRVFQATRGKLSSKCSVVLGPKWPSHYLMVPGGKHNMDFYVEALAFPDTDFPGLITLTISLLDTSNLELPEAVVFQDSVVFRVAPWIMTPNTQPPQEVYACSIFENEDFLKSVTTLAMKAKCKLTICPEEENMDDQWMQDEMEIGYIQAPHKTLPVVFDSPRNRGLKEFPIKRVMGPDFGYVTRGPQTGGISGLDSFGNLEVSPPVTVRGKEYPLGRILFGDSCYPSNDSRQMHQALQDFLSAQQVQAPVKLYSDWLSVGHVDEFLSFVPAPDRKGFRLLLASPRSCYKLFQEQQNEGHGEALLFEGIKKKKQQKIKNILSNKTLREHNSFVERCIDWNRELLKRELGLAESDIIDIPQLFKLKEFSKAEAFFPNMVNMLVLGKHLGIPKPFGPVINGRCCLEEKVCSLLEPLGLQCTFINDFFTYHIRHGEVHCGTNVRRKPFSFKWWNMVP
Method in brief: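 Ammonia release from BAEE deimination monitored by o-phthalaldehyde amine coupling (1 h, 25 °C) after EDTA stop. Final conditions: 5 nM tag-free recombinant human PAD4 (E. coli), 2 mM CaCl2, 3 mM BAEE, pH 7.6 MOPS with DTT; 30 min compound preincubation, then 2 h reaction at 25 °C.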
Compound `COc1cc(C(=O)N2[C@H]3CC[C@@H]2[C@H](N)C3)cc2nc(-c3cc4ccc([C@@H](C)Nc5ccc(F)cn5)nc4n3CC3CC3)c(C)n12` [Example 259, ((1R,2R,4S)-2-amino-7-azabicyclo[2.2.1]heptan-7-yl)(2-(1-(cyclopropylmethyl)-6-((R)-1-((5-fluoropyridin-2-yl)amino)ethyl)-1H-pyrrolo[2,3-b]pyridin-2-yl)-5-methoxy-3-methylimidazo[1,2-a]pyridin-7-yl)methanone] has an IC50 of 180 nM.
`COc1cc(C(=O)N2[C@H]3CC[C@@H]2[C@H](N)C3)cc2nc(-c3cc4ccc([C@@H](C)Nc5cnn(C(C)(C)C)c5)nc4n3CC3CC3)c(C)n12` [Example 260, [(1~{R},2~{R},4~{S})-2-amino-7-azabicyclo[2.2.1]heptan-7-yl]-[2-[6-[(1~{R})-1-[(1-~{tert}-butylpyrazol-4-yl)amino]ethyl]-1-(cyclopropylmethyl)pyrrolo [2,3-b]pyridin-2-yl]-5-methoxy-3-methylimidazo [1,2-a]pyridin-7-yl] methanone] showed an IC50 of 122 nM.
For `COc1cc(C(=O)N2[C@H]3CC[C@@H]2[C@H](N)C3)cc2nc(-c3cc4ccc([C@@H](C)Nc5ccccn5)nc4n3CC3CC3)c(C)n12` [Example 261, [(1~{R},2~{R},4~{S})-2-amino-7-azabicyclo [2.2.1]heptan-7-yl]-[2-[1-(cyclopropylmethyl)-6-[(1~{R})-1-(pyridin-2-ylamino)ethyl]pyrrolo[2,3-b]pyridin-2-yl]-5-methoxy-3-methylimidazo[1,2-a]pyridin-7-yl]methanone], the IC50 was 144 nM.
`COc1cc(C(=O)N2[C@H]3CC[C@@H]2[C@H](N)C3)cc2nc(-c3cc4ccc([C@@H](C)Nc5cccc(Cl)n5)nc4n3CC3CC3)c(C)n12` [Example 262, [(1~{R},2~{R},4~{S})-2-amino-7-azabicyclo [2.2.1]heptan-7-yl]-[2-[6-[(1~{R})-1-[(6-chloropyridin-2-yl)amino]ethyl]-1-(cyclopropylmethyl)pyrrolo[2,3-b]pyridin-2-yl]-5-methoxy-3-methylimidazo[1,2-a]pyridin-7-yl]methanone] showed an IC50 of 867 nM.
`COc1cc(C(=O)N2[C@H]3CC[C@@H]2[C@H](N)C3)cc2nc(-c3cc4ccc([C@@H](C)Nc5cnccn5)nc4n3CC3CC3)c(C)n12` [Example 263, [(1~{R},2~{R},4~{S})-2-amino-7-azabicyclo [2.2.1]heptan-7-yl]-[2-[1-(cyclopropylmethyl)-6-[(1~{R})-1-(pyrazin-2-ylamino)ethyl]pyrrolo [2,3-b]pyridin-2-yl]-5-methoxy-3-methylimidazo[1,2-a]pyridin-7-yl]methanone] showed an IC50 of 71.1 nM.
In the case of `COc1cc(C(=O)N2[C@H]3CC[C@@H]2[C@H](N)C3)cc2nc(-c3cc4ccc([C@@H](C)Nc5ncc(F)cn5)nc4n3CC3CC3)c(C)n12` [Example 264, [(1~{R},2~{R},4~{S})-2-amino-7-azabicyclo [2.2.1]heptan-7-yl]-[2-[1-(cyclopropylmethyl)-6-[(1~{R})-1-[(5-fluoropyrimidin-2-yl)amino]ethyl]pyrrolo[2,3-b]pyridin-2-yl]-5-methoxy-3-methylimidazo[1,2-a]pyridin-7-yl]methanone], the IC50 is reported as 134 nM.
With `COc1cc(C(=O)N2[C@H]3CC[C@@H]2[C@H](N)C3)cc2nc(-c3cc4ccc([C@@H](C)Nc5ncccn5)nc4n3CC3CC3)c(C)n12` [Example 265, ((1R,2R,4S)-2-amino-7-azabicyclo[2.2.1]heptan-7-yl)(2-(1-(cyclopropylmethyl)-6-((R)-1-(pyrimidin-2-ylamino)ethyl)-1H-pyrrolo[2,3-b]pyridin-2-yl)-5-methoxy-3-methylimidazo[1,2-a]pyridin-7-yl)methanone] the IC50 was 72 nM.
`COc1cc(C(=O)N2C[C@H]3CC[C@@H]2[C@@H]3N)cc2nc(-c3cc4ccc([C@@H](C)Nc5ncccn5)nc4n3CC3CC3)c(C)n12` [Example 266, ((1R,4R,7R)-7-amino-2-azabicyclo[2.2.1]heptan-2-yl)(2-(1-(cyclopropylmethyl)-6-((R)-1-(pyrimidin-2-ylamino)ethyl)-1H-pyrrolo[2,3-b]pyridin-2-yl)-5-methoxy-3-methylimidazo [1,2-a]pyridin-7-yl) methanone] showed an IC50 of 341 nM.
